We go through 19 molecules from patent US9624201B2, “Inhibitors of bruton's tyrosine kinase” (Hoffmann-La Roche Inc., priority 2013, dated 2017).

One may read the IC50 as the concentration that inhibits the measured activity by half. A high value points to lower potency.

Sequence of Bruton's Tyrosine Kinase (inactivated state) (Q06187 whole entry): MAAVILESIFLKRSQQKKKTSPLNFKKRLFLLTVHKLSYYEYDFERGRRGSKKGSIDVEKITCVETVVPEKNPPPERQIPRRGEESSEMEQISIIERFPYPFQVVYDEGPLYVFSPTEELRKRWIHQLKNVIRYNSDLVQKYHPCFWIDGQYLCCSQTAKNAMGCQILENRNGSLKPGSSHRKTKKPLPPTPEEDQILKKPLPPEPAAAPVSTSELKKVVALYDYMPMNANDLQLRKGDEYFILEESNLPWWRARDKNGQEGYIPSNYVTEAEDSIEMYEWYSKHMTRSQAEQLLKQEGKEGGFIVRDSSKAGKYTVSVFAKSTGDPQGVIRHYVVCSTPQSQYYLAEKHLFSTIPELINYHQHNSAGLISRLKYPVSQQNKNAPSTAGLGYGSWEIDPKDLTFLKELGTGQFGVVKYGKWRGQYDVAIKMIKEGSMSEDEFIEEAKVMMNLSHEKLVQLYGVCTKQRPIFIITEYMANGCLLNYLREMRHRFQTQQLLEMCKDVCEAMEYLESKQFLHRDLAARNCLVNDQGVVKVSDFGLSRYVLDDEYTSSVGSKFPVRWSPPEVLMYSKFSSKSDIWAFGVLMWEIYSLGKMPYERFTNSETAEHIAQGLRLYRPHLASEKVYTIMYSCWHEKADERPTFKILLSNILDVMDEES

The target of the experiment is Bruton's Tyrosine Kinase (inactivated state) (Homo sapiens (Human), UniProt Q06187). Kind of experiment: Bruton's Tyrosine Kinase (BTK) Inhibition TR-FRET (Time Resolved FRET) competition assay. Format: binding. Conditions: inactivated state of BTK; Kinase Tracer 178; incubated 18-24 h at 14° C. On the procedure:
This BTK competition assay measures compound potency (IC50) for the inactivated state of Bruton's Tyrosine Kinase using FRET (Forster/Flouresence Resonance Energy Transfer) technology. The BTK-Eu complex was incubated on ice one hour prior to use at a starting concentration of 50 nM BTK-Bioease™: 10 nM Eu-streptavidin (Perkin-Elmer Catalog# AD0062). The assay buffer consisted of 20 mM HEPES (pH 7.15), 0.1 mM DTT, 10 mM MgCl2, 0.5 mg/ml BSA with 3% Kinase Stabilizer (Fremont Biosolutions, Catalog # STB-K02). After 1 h, the reaction mixture from above was diluted 10 fold in assay buffer to make 5 nM BTK: 1 nM Eu-Streptavidin complex (donor fluorophore). 18 μl of a mixture of 0.11 nM BTK-Eu and 0.11 nM Kinase Tracer 178 (Invitrogen, Catalog # PV5593,) with BTK-Eu alone as no negative control, was then dispensed into 384-well flat bottom plates (Greiner, 784076). Compounds to be tested in assay were prepared as 10× concentrations and serial dilution in half-log increments was performed in DMSO so as to generate 10 point curves. To initiate the FRET reaction, compounds prepared as 10× stock in DMSO was added to the plates and the plates were incubated 18-24 h at 14° C.
After the incubation the plates were read on a BMG Pherastar Fluorescent plate reader (or equivalent) and used to measure the emission energy from the europium donor fluorophore (620 nm emission) and the FRET (665 nm emission). The negative control well values were averaged to obtain the mean minimum. The positive “no inhibitor” control wells were averaged to obtain the mean maximum. Percent of maximal FRET was calculated using following equation: % max FRET=100×[(FSRcmpd−FSRmean min)/(FSRmean max−FSRmean min)] where FSR=FRET Signal ratio. % Max FRET curves were plotted in Activity Base (Excel) and the IC50(%), hill slope, z′ and % CV were determined. The mean IC50 and standard deviation will be derived from duplicate curves (singlet inhibition curves from two independent dilutions) using Microsoft Excel.
Turning to `Cc1cc(Oc2cccc(F)c2F)ccc1-n1ncc(C(=O)c2cc3c(-c4ccsc4)cccc3[nH]2)c1N` [Compound 3, {5-Amino-1-[4-(2,3-difluoro-phenoxy)-2-methyl-phenyl]-1H-pyrazol-4-yl}-(4-thiophen-3-yl-1H-indol-2-yl)-methanone], the IC50 amounted to 106 nM.

As to `COc1cccc(Cc2cccc3[nH]c(C(=O)c4cnn(-c5ccc(Oc6cccc(C#N)c6)cc5C)c4N)cc23)c1` [Compound 17, 3-(4-{5-Amino-4-[4-(3-methoxy-benzyl)-1H-indole-2-carbonyl]-pyrazol-1-yl}-3-methyl-phenoxy)-benzonitrile], the IC50 was determined as 21.1 nM. Molecule `Cc1cc(Oc2cccc(F)c2F)ccc1-n1ncc(C(=O)c2cc3c(-c4ccccn4)cccc3[nH]2)c1N` [Compound 8, {5-Amino-1-[4-(2,3-difluoro-phenoxy)-2-methyl-phenyl]-1H-pyrazol-4-yl}-(4-pyridin-2-yl-1H-indol-2-yl)-methanone] registered a 50% inhibitory concentration (IC50) of 6.15 nM.

For `Cc1cc(Oc2cccc(F)c2F)ccc1-n1ncc(C(=O)c2cc3c(-c4cn[nH]c4)cccc3[nH]2)c1N` [Compound 10, {5-Amino-1-[4-(2,3-difluoro-phenoxy)-2-methyl-phenyl]-1H-pyrazol-4-yl}-[4-(1H-pyrazol-4-yl)-1H-indol-2-yl]-methanone], the IC50 stood at 4.21 nM. The molecule `Cc1cc(Oc2cccc(F)c2F)ccc1-n1ncc(C(=O)c2cc3c(Cc4cccc(C#N)c4)cccc3[nH]2)c1N` [Compound 13, 3-(2-{5-Amino-1-[4-(2,3-difluoro-phenoxy)-2-methyl-phenyl]-1H-pyrazole-4-carbonyl}-1H-indol-4-ylmethyl)-benzonitrile] showed a concentration for half-maximal inhibition (IC50) of 29.5 nM.

The molecule `Cc1cc(Oc2cccc(F)c2F)ccc1-n1ncc(C(=O)c2cc3c(-c4cccc(C#N)c4)cccc3[nH]2)c1N` [Compound 11, 3-(2-{5-Amino-1-[4-(2,3-difluoro-phenoxy)-2-methyl-phenyl]-1H-pyrazole-4-carbonyl}-1H-indol-4-yl)-benzonitrile] displayed an IC50 of 59.1 nM.

The molecule `Cc1cc(Oc2cccc(F)c2F)ccc1-n1ncc(C(=O)c2cc3c(-c4cccs4)cccc3[nH]2)c1N` [Compound 5, {5-Amino-1-[4-(2,3-difluoro-phenoxy)-2-methyl-phenyl]-1H-pyrazol-4-yl}-(4-thiophen-2-yl-1H-indol-2-yl)-methanone] came in with an IC50 of 214 nM. With “{5-Amino-1-[4-(2,3-difluoro-phenoxy)-2-methyl-phenyl]-1H-pyrazol-4-yl}-[4-(1-methyl-1H-pyrazol-4-yl)-1H-indol-2-yl]-methanone [Compound 7]”, the IC50 stood at 65.3 nM. Take `Cc1cc(Oc2cccc(F)c2F)ccc1-n1ncc(C(=O)c2cc3c(-n4cccn4)cccc3[nH]2)c1N` [Compound 4, {5-Amino-1-[4-(2,3-difluoro-phenoxy)-2-methyl-phenyl]-1H-pyrazol-4-yl}-(4-pyrazol-1-yl-1H-indol-2-yl)-methanone]: the IC50 came to 20.8 nM. With `Cc1cc(Oc2cccc(C#N)c2)ccc1-n1ncc(C(=O)c2cc3c(C(=O)N4CCOCC4)cccc3[nH]2)c1N` [Compound 15, 3-(4-{5-Amino-4-[4-(morpholine-4-carbonyl)-1H-indole-2-carbonyl]-pyrazol-1-yl}-3-methyl-phenoxy)-benzonitrile], the IC50 was 93.6 nM. For `Cc1cc(Oc2cccc(C#N)c2)ccc1-n1ncc(C(=O)c2cc3c(C(=O)N4CCN(C)CC4)cccc3[nH]2)c1N` [Compound 16, 3-(4-{5-Amino-4-[4-(4-methyl-piperazine-1-carbonyl)-1H-indole-2-carbonyl]-pyrazol-1-yl}-3-methyl-phenoxy)-benzonitrile], the IC50 turned out to be 39.1 nM.

`Cc1cc(Oc2cccc(F)c2F)ccc1-n1ncc(C(=O)c2cc3c(Br)cccc3[nH]2)c1N` [Compound 1, {5-Amino-1-[4-(2,3-difluoro-phenoxy)-2-methyl-phenyl]-1H-pyrazol-4-yl}-(4-bromo-1H-indol-2-yl)-methanone] gave an IC50 of 61.5 nM. `Cc1cc(Oc2cccc(F)c2F)ccc1-n1ncc(C(=O)c2cc3c(-c4ccccc4)cccc3[nH]2)c1N` [Compound 2, {5-Amino-1-[4-(2,3-difluoro-phenoxy)-2-methyl-phenyl]-1H-pyrazol-4-yl}-(4-phenyl-1H-indol-2-yl)-methanone] came in with an IC50 of 85.1 nM.

In the case of `Cc1cc(Oc2cccc(C#N)c2)ccc1-n1ncc(C(=O)c2cc3c(CC#N)cccc3[nH]2)c1N` [Compound 20, 3-{4-[5-Amino-4-(4-cyanomethyl-1H-indole-2-carbonyl)-pyrazol-1-yl]-3-methyl-phenoxy}-benzonitrile], the IC50 amounted to 8.45 nM. As to `Cc1cc(Oc2cccc(F)c2F)ccc1-n1ncc(C(=O)c2cc3c(-c4cccc(Cl)c4)cccc3[nH]2)c1N` [Compound 12, {5-Amino-1-[4-(2,3-difluoro-phenoxy)-2-methyl-phenyl]-1H-pyrazol-4-yl}-[4-(3-chloro-phenyl)-1H-indol-2-yl]-methanone], the concentration for half-maximal inhibition (IC50) was 201 nM. Regarding `Cc1cc(Oc2cccc(C#N)c2)ccc1-n1ncc(C(=O)c2cc3c(-c4cn[nH]c4)cccc3[nH]2)c1N` [Compound 14, 3-(4-{5-Amino-4-[4-(1H-pyrazol-4-yl)-1H-indole-2-carbonyl]-pyrazol-1-yl}-3-methyl-phenoxy)-benzonitrile], the IC50 was found to be 8.38 nM. As to `Cc1cc(Oc2cccc(F)c2F)ccc1-n1ncc(C(=O)c2cc3c(Cc4ccccc4)cccc3[nH]2)c1N` [Compound 9, {5-Amino-1-[4-(2,3-difluoro-phenoxy)-2-methyl-phenyl]-1H-pyrazol-4-yl}-(4-benzyl-1H-indol-2-yl)-methanone], the IC50 came to 33.1 nM. As for `Cc1cc(Oc2cccc(F)c2F)ccc1-n1ncc(C(=O)c2cc3c(C(=O)N4CCOCC4)cccc3[nH]2)c1N` [Compound 6, {5-Amino-1-[4-(2,3-difluoro-phenoxy)-2-methyl-phenyl]-1H-pyrazol-4-yl}-[4-(morpholine-4-carbonyl)-1H-indol-2-yl]-methanone], the IC50 stood at 11.9 nM.

In turn, `CNC(=O)c1cccc2[nH]c(C(=O)c3cnn(-c4ccc(Oc5cccc(C#N)c5)cc4C)c3N)cc12` [Compound 21, 2-{5-Amino-1-[4-(3-cyano-phenoxy)-2-methyl-phenyl]-1H-pyrazole-4-carbonyl}-1H-indole-4-carboxylic acid methylamide] gave an IC50 of 13 nM.
